Test results reported in paper PMC10288505, “Photoswitchable Calixarene Activators for Controlled Peptide Transport across Lipid Membranes” (Journal of the American Chemical Society, 2023).

Experiments:
hexaarginine (R6) = experiment: Indicator displacement assay with host:LCG reporter pair, guest R6; type: binding; details: association constant, competitive dye displacement with LCG, 5 mM phosphate buffer pH 7.3; only the lower limit can be estimated
Excerpt: (§1) The binding affinity of the anionic calixarene activators toward cationic peptides was investigated using a small library of highly hydrophilic oligoarginines, from 3 to 8 residues. These peptides are not able to spontaneously transverse zwitterionic artificial membranes in vesicle assays, which allows the accurate evaluation of the calixarenes 1 and 2 as counterion activators without interferences from the transport of the peptide alone.[43]−[45] First, the formation of host–guest complexes between 1/2 and the selected peptides was verified by indicator displacement assays using lucigenin (LCG) as the fluorescent indicator.[46] As previously reported for other sulfonatocalixarene derivatives,[46] the formation of host–guest binding pairs between calixarenes 1/2 in the E- and Z-forms and LCG results in significant static fluorescence quenching (see Figure 2A and Figures S26 and S27). Quantitative analysis of the fluorescence titration data using a 1:1 host:guest binding model allows the determination of the respective binding constants (K) reported in Table 1. As can be observed, both 1/2 display high affinity for the LCG dye, on the 10^7 M^–1 range, which seems to be independent of the nature and conformation of the azobenzene arm. […] The host:LCG binding pairs were then employed in the above-mentioned indicator displacement assays to investigate the binding affinity of oligoarginines toward 1 and 2 (see Figure 2B and Figures S29–S33).
Figure 2 (A) Fluorescence titration of the lucigenin dye (LCG, 1.5 μM) with increasing concentrations of E-2 in water (5 mM phosphate buffer, pH 7.3). […]
(§2) The binding affinities of the counterion activators and peptide complexes were analyzed by indicator displacement assays. […] Firstly, the affinity for LCG was calculated for each of the activators, by titrations followed by fluorescence spectroscopy leading to almost full quenching of the emission. […]
(§3) Figure S26 - Fluorescence titration of the lucigenin dye with increasing concentrations of A) E-1 and B) Z–1 in water (5 mM phosphate buffer pH 7.3). […]

R8 = experiment: Indicator displacement assay with host:LCG reporter pair, guest R8; type: binding; details: association constant, competitive dye displacement with LCG, 5 mM phosphate buffer pH 7.3; only the lower limit can be estimated
Excerpt: as §1, §2, §3

Row | Compound | Apparent affinity constant K for R6 (hexaarginine (R6)) | Apparent affinity constant K for R8 (R8)
1 | CCCCc1ccc(/N=N/c2ccc(OCCCOc3c4cc(S(=O)(=O)[O-])cc3Cc3cc(S(=O)(=O)[O-])cc(c3O)Cc3cc(S(=O)(=O)[O-])cc(c3O)Cc3cc(S(=O)(=O)[O-])cc(c3O)C4)cc2)cc1.[Li+].[Li+].[Li+].[Li+] [E-2] | >5 × 10^8 ^a M^–1 | >5 × 10^8 ^a M^–1
2 | O=S(=O)([O-])c1cc2c(O)c(c1)Cc1cc(S(=O)(=O)[O-])cc(c1O)Cc1cc(S(=O)(=O)[O-])cc(c1OCCCCCCOc1ccc(/N=N/c3ccccc3)cc1)Cc1cc(S(=O)(=O)[O-])cc(c1O)C2.[Li+].[Li+].[Li+].[Li+] [E-1] | >5 × 10^8 ^a M^–1 | >5 × 10^8 ^a M^–1
